This note sets out measurements from PubChem BioAssay AID330 (DTP/NCI, 2004).

Where “and” joins values, the source holds several entries; their conditions need not be identical. Identical values can stand only once. Inconclusive results and toxic doses are left out. Peptide text beside a SMILES is read from it.

In this test the test system is P388 leukemia ip, CD2F1 mice, survival T/C. The test can be described thus: NCI In Vivo Anticancer Drug Screen. Data for tumor model P388 Leukemia (intraperitoneal) in CD2F1 (CDF1) mice. To be noted: endpoint: median survival time, higher = longer survival. The method in brief: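 Mice carrying the transplanted tumor received test compound or vehicle. Survival was recorded in each group, and the value is the treated-group measurement divided by that of the vehicle-treated control group.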

The mark [1] stands for this setting: dose: 50.0 mg/kg/injection, schedule: Q01DX009 (ip), vehicle: saline.
Where [2] appears, read: dose: 200.0 mg/kg/injection, schedule: Q01DX009 (ip), vehicle: saline with Tween-80.
The mark [3] stands for this setting: dose: 12.5 mg/kg/injection, schedule: Q01DX009 (ip), vehicle: saline with Tween-80.
Setting [4] is: dose: 25.0 mg/kg/injection, schedule: Q01DX009 (ip), vehicle: saline with Tween-80.
Setting [5] is: dose: 50.0 mg/kg/injection, schedule: Q01DX009 (ip), vehicle: saline with Tween-80.
[6] abbreviates: dose: 100.0 mg/kg/injection, schedule: Q01DX009 (ip), vehicle: saline with Tween-80.
Setting [7] is: dose: 50.0 mg/kg/injection, schedule: Q01DX005 (ip), vehicle: saline with Tween-80.
Setting [8] is: dose: 100.0 mg/kg/injection, schedule: Q01DX005 (ip), vehicle: saline with Tween-80.
[9] abbreviates: dose: 200.0 mg/kg/injection, schedule: Q01DX005 (ip), vehicle: saline with Tween-80.
The mark [10] stands for this setting: dose: 50.0 mg/kg/injection, schedule: Q01DX009 (ip), vehicle: Klucel (hydroxypropylcellulose) (HPC).
The mark [11] stands for this setting: dose: 100.0 mg/kg/injection, schedule: Q01DX009 (ip), vehicle: Klucel (hydroxypropylcellulose) (HPC).
The mark [12] stands for this setting: dose: 200.0 mg/kg/injection, schedule: Q01DX009 (ip), vehicle: Klucel (hydroxypropylcellulose) (HPC).

For `CC1C(C(=O)c2ccccc2)=CNc2ccccc21` (stereo not drawn), the T/C (dose: 100.0 mg/kg/injection, schedule: Q01DX001 (ip), vehicle: saline with Tween-80) was 91 % of control; the T/C (dose: 200.0 mg/kg/injection, schedule: Q01DX001 (ip), vehicle: saline with Tween-80) was 96 % of control; the T/C (dose: 400.0 mg/kg/injection, schedule: Q01DX001 (ip), vehicle: saline with Tween-80) is 92 % of control.
Take `OC(CCl)CN1CCN(CC(O)CCl)CC1` (stereo not drawn): the T/C reads like this: (dose: 25.0 mg/kg/injection, schedule: Q01DX005 (ip), vehicle: water) 150 % of control; (dose: 100.0 mg/kg/injection, schedule: Q01DX005 (ip), vehicle: water) 90 % of control and 92 % of control.
In the case of `CCOC(=O)C(Cc1c[nH]c2ccccc12)NCCN` (stereo not drawn), the T/C was 99 % of control under setting [1]; 108 % of control (dose: 100.0 mg/kg/injection, schedule: Q01DX009 (ip), vehicle: saline); 86 % of control (dose: 200.0 mg/kg/injection, schedule: Q01DX009 (ip), vehicle: saline).
Regarding `O=C(CCBr)NCCNC(=O)CCBr`, the T/C was 105 % of control (dose: 43.75 mg/kg/injection, schedule: Q01DX009 (ip), vehicle: saline); 103 % of control (dose: 87.5 mg/kg/injection, schedule: Q01DX009 (ip), vehicle: saline); 108 % of control (dose: 175.0 mg/kg/injection, schedule: Q01DX009 (ip), vehicle: saline).
Turning to `N=c1ccn2c(n1)OC1C(O)C(COS(=O)OC3C(CO)OC4C3Oc3nc(=N)ccn34)OC12` (stereo not drawn), the T/C under setting [2] was 112 % of control.
In the case of `O=c1nc(Nc2cccc(Cl)c2)oc2cc(Cl)oc(=O)c12`, the T/C under setting [3] is 109 % of control; the T/C under setting [4] is 109 % of control; the T/C under setting [5] is 113 % of control and 115 % of control; the T/C under setting [6] was 95 % of control.
Turning to `COc1cc(NS(=O)(=O)c2ccccc2)c2nc3ccc(Cl)cc3nc2c1`, the T/C by setting is: (dose: 60.0 mg/kg/injection, schedule: Q01DX005 (ip), vehicle: Klucel (hydroxypropylcellulose) (HPC)) 96 % of control; (dose: 120.0 mg/kg/injection, schedule: Q01DX005 (ip), vehicle: Klucel (hydroxypropylcellulose) (HPC)) 90 % of control; (dose: 240.0 mg/kg/injection, schedule: Q01DX005 (ip), vehicle: Klucel (hydroxypropylcellulose) (HPC)) 89 % of control.
As to `[N-]=[N+]=CC(=O)C1(c2ccccc2)OC1c1ccccc1` (stereo not drawn), the T/C was 91 % of control (dose: 25.0 mg/kg/injection, schedule: Q01DX005 (ip), vehicle: saline with Tween-80); 86 % of control under setting [7]; 94 % of control under setting [8]; 86 % of control under setting [9].
As for `COc1cccc2c1C(=O)c1c(O)c3c(c(O)c1C2=O)C[C@@](O)(C(O)CO)C[C@@H]3OC1CC(N)C(O)C(C)O1` (stereo partly drawn), the T/C was 155 % of control and 150 % of control (dose: 0.78 mg/kg/injection, schedule: Q01DX009 (ip), vehicle: water); 174 % of control and 168 % of control (dose: 1.56 mg/kg/injection, schedule: Q01DX009 (ip), vehicle: water); 183 % of control (dose: 2.0 mg/kg/injection, schedule: Q01DX009 (ip), vehicle: water); 192 % of control and 200 % of control (dose: 3.13 mg/kg/injection, schedule: Q01DX009 (ip), vehicle: water); 211 % of control (dose: 4.0 mg/kg/injection, schedule: Q01DX009 (ip), vehicle: water); 260 % of control and 197 % of control and 264 % of control (dose: 6.25 mg/kg/injection, schedule: Q01DX009 (ip), vehicle: water). Besides, the T/C was 116 % of control (dose: 6.25 mg/kg/injection, schedule: Q04DX003 (ip), vehicle: water); 266 % of control (dose: 8.0 mg/kg/injection, schedule: Q01DX009 (ip), vehicle: water); 95 % of control (dose: 12.5 mg/kg/injection, schedule: Q01DX009 (ip), vehicle: water); 94 % of control (dose: 16.0 mg/kg/injection, schedule: Q01DX009 (ip), vehicle: water); 198 % of control (dose: 25.0 mg/kg/injection, schedule: Q04DX003 (ip), vehicle: water); 172 % of control (dose: 50.0 mg/kg/injection, schedule: Q04DX003 (ip), vehicle: water).
On to `C=C1C=[n+]2ccccc2=N1`, for which the T/C is 93 % of control (dose: 25.0 mg/kg/injection, schedule: Q01DX009 (ip), vehicle: saline) and 96 % of control under setting [1].
In the case of `O=C1NC(=O)N2CC(CBr)OC2C1c1ccccc1` (stereo not drawn), the T/C is 101 % of control under setting [10], 100 % of control under setting [11] and 100 % of control under setting [12].
`O=C1c2ccccc2-c2c(NC(=O)C(Cl)Cl)cccc21`: the T/C was 87 % of control (dose: 50.0 mg/kg/injection, schedule: Q01DX005 (ip), vehicle: Klucel (hydroxypropylcellulose) (HPC)); 86 % of control (dose: 100.0 mg/kg/injection, schedule: Q01DX005 (ip), vehicle: Klucel (hydroxypropylcellulose) (HPC)); 86 % of control (dose: 200.0 mg/kg/injection, schedule: Q01DX005 (ip), vehicle: Klucel (hydroxypropylcellulose) (HPC)).
Regarding `CSc1nc(N)nc2c1ncn2C1CC(O)C(CO)O1` (stereo not drawn), the T/C reads like this: (dose: 50.0 mg/kg/injection, schedule: Q04DX003 (ip), vehicle: Klucel (hydroxypropylcellulose) (HPC)) 94 % of control; (dose: 100.0 mg/kg/injection, schedule: Q04DX003 (ip), vehicle: Klucel (hydroxypropylcellulose) (HPC)) 100 % of control; (dose: 200.0 mg/kg/injection, schedule: Q04DX003 (ip), vehicle: Klucel (hydroxypropylcellulose) (HPC)) 107 % of control; (dose: 400.0 mg/kg/injection, schedule: Q04DX003 (ip), vehicle: Klucel (hydroxypropylcellulose) (HPC)) 106 % of control.
As for `N#Cc1ccccc1N=Nc1ccccc1`, the T/C (dose: 50.0 mg/kg/injection, schedule: Q01DX009 (ip), vehicle: saline + alcohol) was 94 % of control; the T/C (dose: 100.0 mg/kg/injection, schedule: Q01DX009 (ip), vehicle: saline + alcohol) is 95 % of control; the T/C (dose: 200.0 mg/kg/injection, schedule: Q01DX009 (ip), vehicle: saline + alcohol) is 97 % of control.
As for `NC(CCC(=O)O)C(=O)NC(CCC(=O)O)C(=O)O` (stereo not drawn) (H-Glu-Glu-OH; configuration not given here), the T/C was 97 % of control (dose: 50.0 mg/kg/injection, schedule: Q01DX005 (ip), vehicle: saline); 103 % of control (dose: 100.0 mg/kg/injection, schedule: Q01DX005 (ip), vehicle: saline); 104 % of control (dose: 200.0 mg/kg/injection, schedule: Q01DX005 (ip), vehicle: saline).
As to `S=c1[nH]nc(-c2n[nH]c3ccccc23)o1`, the T/C was 100 % of control under setting [7], 100 % of control under setting [8] and 97 % of control under setting [9].
In the case of `CCN(CC)CCCNCc1cc(-c2ccccc2)nc2ccccc12`, the T/C is 101 % of control under setting [7], 100 % of control under setting [8] and 95 % of control under setting [9].
For the compound `C[n+]1ccc(/C(C#N)=N/O)cc1`, the T/C was 119 % of control under setting [10], 110 % of control under setting [11] and 109 % of control under setting [12].
For the compound `Cc1ccc(S(=O)(=O)Nc2ccccc2N(CCN(CCN(c2ccccc2NS(=O)(=O)c2ccc(C)cc2)S(=O)(=O)c2ccc(C)cc2)S(=O)(=O)c2ccc(C)cc2)S(=O)(=O)c2ccc(C)cc2)cc1`, the T/C is 90 % of control under setting [5], 100 % of control under setting [6] and 90 % of control under setting [2].
As to `O=C1c2ccccc2C2=Cc3ccccc3C(O)N12` (stereo not drawn), the T/C is 104 % of control (dose: 60.0 mg/kg/injection, schedule: Q01DX005 (ip), vehicle: saline with Tween-80); 100 % of control (dose: 120.0 mg/kg/injection, schedule: Q01DX005 (ip), vehicle: saline with Tween-80); 100 % of control (dose: 240.0 mg/kg/injection, schedule: Q01DX005 (ip), vehicle: saline with Tween-80).
As for `CCOn1nnc2ccccc21`, the T/C runs as follows: under setting [5], 92 % of control; under setting [6], 95 % of control; under setting [2], 92 % of control.
On to `CCCCCCCCCCCCN(C)C`, for which the T/C by setting is: under setting [3], 100 % of control; under setting [4], 100 % of control; under setting [5], 100 % of control.
In the case of `C[C@]12CCC(=O)C=C1CC[C@@H]1[C@@H]2C(=O)C[C@@]2(C)[C@H]1CC[C@]2(O)C(=O)C=O`, the T/C is 111 % of control and 123 % of control (dose: 12.5 mg/kg/injection, schedule: Q01DX009 (ip), vehicle: Klucel (hydroxypropylcellulose) (HPC)); 119 % of control (dose: 25.0 mg/kg/injection, schedule: Q01DX009 (ip), vehicle: Klucel (hydroxypropylcellulose) (HPC)); 111 % of control and 120 % of control under setting [10]; 102 % of control and 113 % of control under setting [11].
